Test: log P (octanol/water) of tracer anions
Type: physicochemical
Conditions: log of ratio of equilibrium concentration in oil (octanol) to that in water, representative example values
Source text: The invention concerns the use of halogenated thiophene carboxylic acids or halogenated thiophene sulfonic acids, or salts of either, in tracing applications in hydrocarbon wells. Such compounds are not naturally found in hydrocarbon wells and formations and have not been previously used as tracers in such wells and formations. Tracers comprising such compounds may therefore be used as tracers in such wells and formations without the results of the tracing being affected by contamination. Moreover, the applicant has determined that non-halogenated thiophene compounds exist naturally in hydrocarbon formations and the compounds of the invention are therefore expected to be sufficiently stable, for example to have sufficient thermal stability, to survive the conditions in a hydrocarbon well. Since, unlike the naturally occurring thiophene compounds, the compounds of formula 1 are halogenated they are advantageously also detectable, for example using GC-MS, in very low concentrations, for example concentrations of 1 ppb or less, preferably concentrations of 100 ppt or less, more preferably concentrations of 10 ppt or less and yet more preferably concentrations of 1 ppt or less. The compounds of the invention may also show a high selectivity towards water instead of oil. Thus the tracer may be a water tracer. […] The log P value is a well-known value for characterising the preference of a compound for water or oil. The value is the log of the ratio of the equilibrium concentration of the compound in oil (octanol) to the equilibrium concentration of the compound in water. Thus the concentration of the compound in water is preferably at least 10 times, and more preferably at least 100 times, that of the compound in oil. It may be that the salt of the compound (or the anion of the salt) is more soluble in water than the acid. For that reason, it is preferable to use the salt as the tracer.

logP	SMILES
-1.35	O=C(O)c1csc(Cl)c1
-1.81	O=C(O)c1csc(F)c1
-1.16	Cc1cc(C(=O)O)sc1F

Source: patent publication US20180282605A1, “METHOD OF MONITORING A PARAMETER OF A HYDROCARBON WELL, PIPELINE OR FORMATION” (JOHNSON MATTHEY PUBLIC LIMITHED COMPANY, priority 2015, published 2018)
